Experimental data: PubChem BioAssay (NCI)
“And” between values parts separate entries of the source, which are not always exact repeats. Equal entries are not always repeated.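 Five concentrations, 48 hours, 96-well plates. Abbreviation: GI50, concentration required for 50% inhibition of growth. TGI: total growth inhibition.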

Columns and labels:
Assay in all cases: NCI-60 cell line screen, 48 h
CCRF-CEM leukemia = system: CCRF-CEM leukemia
DU-145 prostate = system: DU-145 prostate
EKVX NSCLC = system: EKVX NSCLC
HCC-2998 colon = system: HCC-2998 colon
KM12 colon = system: KM12 colon
SK-MEL-28 melanoma = system: SK-MEL-28 melanoma
SK-OV-3 ovarian = system: SK-OV-3 ovarian
SNB-19 CNS = system: SNB-19 CNS
SR leukemia = system: SR leukemia
UACC-257 melanoma = system: UACC-257 melanoma

| SMILES | GI50 (CCRF-CEM leukemia) | TGI (CCRF-CEM leukemia) | GI50 (DU-145 prostate) | TGI (DU-145 prostate) | GI50 (EKVX NSCLC) | TGI (EKVX NSCLC) | GI50 (HCC-2998 colon) | TGI (HCC-2998 colon) | GI50 (KM12 colon) | TGI (KM12 colon) | GI50 (SK-MEL-28 melanoma) | TGI (SK-MEL-28 melanoma) | GI50 (SK-OV-3 ovarian) | TGI (SK-OV-3 ovarian) | GI50 (SNB-19 CNS) | TGI (SNB-19 CNS) | GI50 (SR leukemia) | TGI (SR leukemia) | GI50 (UACC-257 melanoma) | TGI (UACC-257 melanoma) |
| --- | --- | --- | --- | --- | --- | --- | --- | --- | --- | --- | --- | --- | --- | --- | --- | --- | --- | --- | --- | --- |
| CN(C)c1ccc(/C=N/n2c(CCCCc3n[nH]c(=S)n3/N=C/c3ccc(N(C)C)cc3)n[nH]c2=S)cc1 | > 100 µM | > 100 µM | > 100 µM | > 100 µM | > 100 µM | > 100 µM | > 100 µM | > 100 µM | > 100 µM | > 100 µM | > 100 µM | > 100 µM | > 100 µM | > 100 µM | > 100 µM | > 100 µM | > 100 µM | > 100 µM | > 100 µM | > 100 µM |
| O=C1c2c(c3c4ccccc4n(CCCCCCN4CCOCC4)c3c3[nH]c4ccccc4c23)C(=O)N1O | 2.25 µM | 8.35 µM | 11.5 µM | > 100 µM | > 43.1 µM | > 82.5 µM | 9.6 µM | 32.1 µM | 7.01 µM | 57.7 µM | 1.96 µM | 4.02 µM | 20.6 µM | 43.2 µM | 10.4 µM | > 100 µM | 0.291 µM | 1.08 µM | 24.5 µM | 56.6 µM |
| Cc1ccc2c(c1)C(=O)/C(=C/c1cccc(OCC(=O)c3ccc(Cl)cc3)c1)CS2 | 2.38 µM | 6.83 µM | 21.9 µM | > 100 µM | 8.65 µM | 40.8 µM |  |  | 2.64 µM | 8.02 µM | 2.27 µM | 4.93 µM | 25.1 µM | 90.9 µM | 19.5 µM | 77.1 µM | 1.8 µM | 4.28 µM | 13.9 µM | 33.3 µM |
| O=c1oc2ccc(I)cc2c(=O)n1-c1ccc(I)cc1F | 1.89 µM | 10.8 µM | 0.684 µM | 17.9 µM | 1.15 µM | 8.21 µM | 2.8 µM | 11.1 µM | 2.2 µM | 5.23 µM | 0.358 µM | 1.9 µM | 0.601 µM | 2.71 µM | 0.399 µM | > 100 µM | 0.61 µM | > 38.2 µM | 0.522 µM | 5.6 µM |
| C#Cc1cccc(Nc2ncnc3ccc(-c4cnc(N)nc4)cc23)c1 | 2.6 µM | > 100 µM | 0.744 µM | 14.6 µM | 0.242 µM | 2.93 µM | 5.14 µM | 23.4 µM | 4.57 µM | 20.8 µM | 3.2 µM | 16 µM | 1.53 µM | 4.74 µM | 3.15 µM | 21.5 µM | 2.58 µM | > 100 µM | 6.57 µM | 46 µM |
| O=C(CCN1CCCC1)Nc1ccc2c(Nc3ccc(Br)cc3)c3ccccc3nc2c1 | 0.494 µM | 2.83 µM | 0.798 µM | 2.07 µM | 1.59 µM | 3.05 µM | 1.26 µM | 2.73 µM | 1.57 µM | 3.29 µM | 1.63 µM | 3.02 µM |  |  | 1.44 µM | 2.79 µM | 0.288 µM | 2.58 µM | 1.89 µM | 3.7 µM |
| O=C(O)C1C2C=CC(O2)C1C(=O)NCc1ccncc1 (stereo unspecified) |  | > 100 µM |  | > 100 µM |  | > 100 µM |  |  |  | > 100 µM |  | > 100 µM |  | > 100 µM |  | > 100 µM |  | > 100 µM |  | > 100 µM |
| COc1ccc(C2CC(c3ccc4ccccc4c3)=NN2c2nc(O)c(C3=c4cc(Cl)ccc4=NC3=O)s2)cc1 (stereo unspecified) | 0.0362 µM and < 0.005 µM | 0.533 µM | 0.0331 µM and < 0.005 µM | 0.147 µM and 0.2 µM | 0.0313 µM and < 0.005 µM |  | 0.0216 µM and < 0.005 µM |  | 0.0236 µM and < 0.005 µM |  | 0.0258 µM and < 0.005 µM |  | 0.0217 µM and < 0.005 µM |  | 0.034 µM and < 0.005 µM | 1.18 µM | 0.0338 µM and < 0.005 µM | < 0.005 µM |  |  |
| COc1ccc2c(c1)C(=O)/C(=C/c1cccc(OCC(=O)c3ccc([N+](=O)[O-])cc3)c1)CO2 | 2.32 µM |  | 2.73 µM | 7.14 µM | 7.68 µM | 21.9 µM |  |  | 1.56 µM | 3.26 µM | 1.86 µM | 3.7 µM | 10.5 µM | 23 µM | 12.4 µM | 25.4 µM | 1.15 µM | 12.9 µM | 3.73 µM | 10.2 µM |
| N#Cc1ccc(C(=O)c2cnn(-c3ccc(F)cc3)c2N)cc1 | > 25 µM | > 25 µM | > 25 µM | > 25 µM |  |  | > 25 µM | > 25 µM | > 25 µM | > 25 µM | > 25 µM | > 25 µM | > 25 µM | > 25 µM | > 25 µM | > 25 µM | > 25 µM | > 25 µM | > 25 µM | > 25 µM |
| CSc1nc(SC)c2c(C)c(Br)[nH]c2n1 |  | > 100 µM |  | > 100 µM |  | > 100 µM |  | > 100 µM |  | > 100 µM |  | > 100 µM |  | > 100 µM |  | > 100 µM |  | > 100 µM |  |  |
| Fc1ccc(-c2c(-c3ccncc3)[nH]c3cccnc23)cc1 | > 25 µM | > 25 µM | > 22.7 µM | > 25 µM |  |  | > 25 µM | > 25 µM | > 25 µM | > 25 µM | > 25 µM | > 25 µM | 10.6 µM | > 25 µM | > 25 µM | > 25 µM | > 18.9 µM | > 25 µM | > 25 µM | > 25 µM |
| CN(CCCCCCCCNc1ccnc2ccccc12)Cc1ccc(-c2ccc(-c3ccc(C#N)cc3)s2)cc1 |  |  | 1.04 µM | 2.38 µM | 0.827 µM | 2.28 µM | 0.275 µM | 1.04 µM | 0.667 µM | 2.17 µM | 1.65 µM | 3.06 µM | 1.65 µM | 3.27 µM | 1.31 µM | 2.79 µM | 0.083 µM | 0.35 µM | 0.482 µM | 1.6 µM |
| CCCCCCCCCCCCSC1=CC(=O)C=CC1=O | 0.143 µM | 4.17 µM | 15.1 µM | > 50 µM |  |  | 15.2 µM | > 50 µM | 1.92 µM | 8.37 µM | 13.6 µM | > 39.9 µM | 12.2 µM | > 33.4 µM | 1.69 µM | > 28.6 µM | 3.58 µM | 29.1 µM | 4.01 µM | 15.9 µM |
